Measured values published in patent publication US20100298141A1, “SUBSTITUTED PYRIDINE N-OXIDE HERBICIDES” (E. I. DU PONT DE NEMOURS AND COMPANY, priority 2007, published 2010).

Assays:
annual bluegrass = experiment: Test D preemergence test; type: in vivo, Poa annua; conditions: scale 0 to 100
Excerpt: (§1) Seeds of plant species selected from annual bluegrass (Poa annua), blackgrass (Alopecurus myosuroides), downy bromegrass (Bromus tectorum), field violet (Viola arvensis), green foxtail (Setaria viridis), Italian ryegrass (Lolium multiflorum), littleseed canarygrass (Phalaris minor), spring wheat (Triticum aestivum), wild oat (Avena fatua), […]), winter barley (Hordeum vulgare), and winter wheat (Triticum aestivum) were planted and treated preemergence with test chemicals formulated in a non-phytotoxic solvent mixture which included a surfactant. […] A dash (-) response means no test result.

blackgrass = experiment: Test D preemergence test; type: in vivo, Alopecurus myosuroides; conditions: scale 0 to 100
Excerpt: as §1

downy bromegrass = experiment: Test D preemergence test; type: in vivo, Bromus tectorum; conditions: scale 0 to 100
Excerpt: as §1

field violet = experiment: Test D preemergence test; type: in vivo, Viola arvensis; conditions: scale 0 to 100
Excerpt: as §1

Italian ryegrass = experiment: Test D preemergence test; type: in vivo, Lolium multiflorum; conditions: scale 0 to 100
Excerpt: as §1

littleseed canarygrass = experiment: Test D preemergence test; type: in vivo, Phalaris minor; conditions: scale 0 to 100
Excerpt: as §1

spring wheat = experiment: Test D preemergence test; type: in vivo, Triticum aestivum; conditions: scale 0 to 100
Excerpt: as §1

winter wheat = experiment: Test D preemergence test; type: in vivo, Triticum aestivum; conditions: scale 0 to 100
Excerpt: as §1

wild oat = experiment: Test D preemergence test; type: in vivo, Avena fatua; conditions: scale 0 to 100
Excerpt: as §1

winter barley = experiment: Test D preemergence test; type: in vivo, Hordeum vulgare
Excerpt: as §1

barnyardgrass = experiment: Test G preemergence test; type: in vivo, Echinochloa crus-galli; conditions: scale 0 to 100
corn = experiment: Test G preemergence test; type: in vivo, Zea mays; conditions: scale 0 to 100
field sandbur = experiment: Test G preemergence test; type: in vivo, Cenchrus incertus; conditions: scale 0 to 100
goosegrass = experiment: Test G preemergence test; type: in vivo, Eleusine indica; conditions: scale 0 to 100
itchgrass = experiment: Test G preemergence test; type: in vivo, Rottboellia cochinchinensis; conditions: scale 0 to 100
millet foxtail = experiment: Test G preemergence test; type: in vivo, Setaria italica; conditions: scale 0 to 100
sorghum = experiment: Test G preemergence test; type: in vivo, Sorghum vulgare; conditions: scale 0 to 100
soybean = experiment: Test G preemergence test; type: in vivo, Glycine max; conditions: scale 0 to 100
tall waterhemp = experiment: Test G preemergence test; type: in vivo, Amaranthus tuberculatos; conditions: scale 0 to 100
yellow foxtail = experiment: Test G preemergence test; type: in vivo, Pennisetum glaucum; conditions: scale 0 to 100
yellow nutsedge = experiment: Test G preemergence test; type: in vivo, Cyperus esculentus; conditions: scale 0 to 100
woolly cupgrass = experiment: Test G preemergence test; type: in vivo, Eriochloa villosa; conditions: scale 0 to 100

Cc1cc[n+]([O-])c(S(=O)(=O)C(C)c2c(C(F)(F)F)nn(C)c2Cl)c1 (racemic) [Compound 14]
Plant response rating, Bluegrass (annual bluegrass; 31 g ai/ha): 0 | Plant response rating, Bluegrass (annual bluegrass; 62 g ai/ha): 0 | Plant response rating, Bluegrass (annual bluegrass; 125 g ai/ha): 65 | Plant response rating, Bluegrass (annual bluegrass; 250 g ai/ha): 100 | Plant response rating, Blackgrass (blackgrass; 31 g ai/ha): 0 | Plant response rating, Blackgrass (blackgrass; 62 g ai/ha): 40 | Plant response rating, Blackgrass (blackgrass; 125 g ai/ha): 40 | Plant response rating, Blackgrass (blackgrass; 250 g ai/ha): 95 | Plant response rating, Bromegrass, Downy (downy bromegrass; 31 g ai/ha): 0 | Plant response rating, Bromegrass, Downy (downy bromegrass; 62 g ai/ha): 0 | Plant response rating, Bromegrass, Downy (downy bromegrass; 125 g ai/ha): 60 | Plant response rating, Bromegrass, Downy (downy bromegrass; 250 g ai/ha): 60 | Plant response rating, Field Violet (field violet; 31 g ai/ha): 0 | Plant response rating, Field Violet (field violet; 62 g ai/ha): 0 | Plant response rating, Field Violet (field violet; 125 g ai/ha): 0 | Plant response rating, Field Violet (field violet; 250 g ai/ha): 45 | Plant response rating, Ryegrass, Italian (Italian ryegrass; 31 g ai/ha): 0 | Plant response rating, Ryegrass, Italian (Italian ryegrass; 62 g ai/ha): 0 | Plant response rating, Ryegrass, Italian (Italian ryegrass; 125 g ai/ha): 0 | Plant response rating, Ryegrass, Italian (Italian ryegrass; 250 g ai/ha): 100 | Plant response rating, Canarygrass (littleseed canarygrass; 31 g ai/ha): 0 | Plant response rating, Canarygrass (littleseed canarygrass; 62 g ai/ha): 0 | Plant response rating, Canarygrass (littleseed canarygrass; 125 g ai/ha): 15 | Plant response rating, Canarygrass (littleseed canarygrass; 250 g ai/ha): 20 | Plant response rating, Wheat, Spring (spring wheat; 31 g ai/ha): 0 | Plant response rating, Wheat, Spring (spring wheat; 62 g ai/ha): 0 | Plant response rating, Wheat, Spring (spring wheat; 125 g ai/ha): 15 | Plant response rating, Wheat, Spring (spring wheat; 250 g ai/ha): 20 | Plant response rating, Wheat, Winter (winter wheat; 31 g ai/ha): 0 | Plant response rating, Wheat, Winter (winter wheat; 62 g ai/ha): 0 | Plant response rating, Wheat, Winter (winter wheat; 125 g ai/ha): 20 | Plant response rating, Wheat, Winter (winter wheat; 250 g ai/ha): 35 | Plant response rating, Oat, Wild (wild oat; 31 g ai/ha): 0 | Plant response rating, Oat, Wild (wild oat; 62 g ai/ha): 0 | Plant response rating, Oat, Wild (wild oat; 125 g ai/ha): 0 | Plant response rating, Oat, Wild (wild oat; 250 g ai/ha): 20 | Plant response rating, Barley (winter barley; Preemergence, 62 g ai/ha, scale 0 to 100): 0 | Plant response rating, Barley (winter barley; Preemergence, 125 g ai/ha, scale 0 to 100): 0 | Plant response rating, Barley (winter barley; Preemergence, 31 g ai/ha, scale 0 to 100): 0 | Plant response rating, Barley (winter barley; preemergence, 250 g ai/ha, scale 0 (no effect) to 100 (complete control)): 15 | Plant response rating, Barnyardgrass (barnyardgrass; 31 g ai/ha): 0 | Plant response rating, Barnyardgrass (barnyardgrass; 62 g ai/ha): 45 | Plant response rating, Barnyardgrass (barnyardgrass; 125 g ai/ha): 70 | Plant response rating, Barnyardgrass (barnyardgrass; 250 g ai/ha): 100 | Plant response rating, Corn (corn; 31 g ai/ha): 0 | Plant response rating, Corn (corn; 62 g ai/ha): 0 | Plant response rating, Corn (corn; 125 g ai/ha): 0 | Plant response rating, Corn (corn; 250 g ai/ha): 35 | Plant response rating, Sandbur (field sandbur; 31 g ai/ha): 0 | Plant response rating, Sandbur (field sandbur; 62 g ai/ha): 20 | Plant response rating, Sandbur (field sandbur; 125 g ai/ha): 45 | Plant response rating, Sandbur (field sandbur; 250 g ai/ha): 85 | Plant response rating, Goosegrass (goosegrass; 31 g ai/ha): 85 | Plant response rating, Goosegrass (goosegrass; 62 g ai/ha): 95 | Plant response rating, Goosegrass (goosegrass; 125 g ai/ha): 100 | Plant response rating, Goosegrass (goosegrass; 250 g ai/ha): 100 | Plant response rating, Itchgrass (itchgrass; 31 g ai/ha): 0 | Plant response rating, Itchgrass (itchgrass; 62 g ai/ha): 0 | Plant response rating, Itchgrass (itchgrass; 125 g ai/ha): 15 | Plant response rating, Itchgrass (itchgrass; 250 g ai/ha): 20 | Plant response rating, Foxtail, Millet (millet foxtail; 31 g ai/ha): 0 | Plant response rating, Foxtail, Millet (millet foxtail; 62 g ai/ha): 20 | Plant response rating, Foxtail, Millet (millet foxtail; 125 g ai/ha): 70 | Plant response rating, Foxtail, Millet (millet foxtail; 250 g ai/ha): 100 | Plant response rating, Sorghum (sorghum; 31 g ai/ha): 0 | Plant response rating, Sorghum (sorghum; 62 g ai/ha): 0 | Plant response rating, Sorghum (sorghum; 125 g ai/ha): 20 | Plant response rating, Sorghum (sorghum; 250 g ai/ha): 65 | Plant response rating, Soybean (soybean; 31 g ai/ha): 0 | Plant response rating, Soybean (soybean; 62 g ai/ha): 0 | Plant response rating, Soybean (soybean; 125 g ai/ha): 0 | Plant response rating, Soybean (soybean; 250 g ai/ha): 0 | Plant response rating, Waterhemp (tall waterhemp; 31 g ai/ha): 0 | Plant response rating, Waterhemp (tall waterhemp; 62 g ai/ha): 0 | Plant response rating, Waterhemp (tall waterhemp; 125 g ai/ha): 0 | Plant response rating, Waterhemp (tall waterhemp; 250 g ai/ha): 40 | Plant response rating, Foxtail, Yellow (yellow foxtail; 31 g ai/ha): 0 | Plant response rating, Foxtail, Yellow (yellow foxtail; 62 g ai/ha): 0 | Plant response rating, Foxtail, Yellow (yellow foxtail; 125 g ai/ha): 95 | Plant response rating, Foxtail, Yellow (yellow foxtail; 250 g ai/ha): 95 | Plant response rating, Nutsedge, Yellow (yellow nutsedge; 31 g ai/ha): 0 | Plant response rating, Nutsedge, Yellow (yellow nutsedge; 62 g ai/ha): 0 | Plant response rating, Nutsedge, Yellow (yellow nutsedge; 125 g ai/ha): 0 | Plant response rating, Nutsedge, Yellow (yellow nutsedge; 250 g ai/ha): 65 | Plant response rating, Cupgrass, Woolly (woolly cupgrass; 31 g ai/ha): 0 | Plant response rating, Cupgrass, Woolly (woolly cupgrass; 62 g ai/ha): 0 | Plant response rating, Cupgrass, Woolly (woolly cupgrass; 125 g ai/ha): 70 | Plant response rating, Cupgrass, Woolly (woolly cupgrass; 250 g ai/ha): 95
